Like-named read-outs stand apart in the source and are kept apart here.
Legend:
Assay type in all cases: in vivo, human
[1] = VBP15-002 Phase IIa multiple ascending dose PK and safety
Method: Vamorolone clinical studies have been conducted in adult male volunteers and boys with DMD, a disorder in which skeletal muscle is in a chronic inflammatory state. Two consecutive open-label dose-ranging studies in 48 DMD patients aged 4 to <7 years (corticosteroid-naïve) were conducted (Phase IIa, VBP15-002; Phase IIa, VBP15-003). Doses were tested over a 24-fold dose range (0.25, 0.75, 2.0, and 6.0 mg/kg/day), with 12 participants per group. The first multiple ascending dose (MAD) cohort trial-tested pharmacokinetics (PK) and safety for 2 weeks of drug dosing followed by a 2-week washout (VBP15-002). […] All DMD participants completed the MAD study and then continued on the same dose for a 24-week dose-finding (efficacy and safety) extension study (VBP15-003).
Three consecutive clinical trials of vamorolone treatment of DMD were conducted by CINRG (VBP15-002 [NCT02760264]; VBP15-003 [NCT02760277]; VBP15-LTE [NCT03038399]). A total of 48 participants (ages 4 to <7 years) were initially enrolled into VBP15-002, with trial participants completing month 12 of the 24-month VBP15-LTE study.
VBP15-002 (Phase IIa; two weeks on the drug, two weeks off drug) enrolled 48 corticosteroid-naïve participants with DMD, and all 48 participants completed the study and enrolled into VBP15-003 (Phase IIa extension; 24-week treatment). […]

[2] = Growth (height percentile) and BMI vs external comparators
Method: As with the CINRG DNHS comparators, group-matching criteria were prespecified in the iSAP, and 2 independent statisticians carried out the participant matching. […] There was no corresponding 12-month assessment in vamorolone-treated participants. (Assessments of vamorolone-treated trial participants were 0, 3, 6, and 18 months).
Standing height and weight were assessed at each study visit. Height z-score, body mass index (BMI; kg/m^2), and BMI z-score were calculated centrally. AE reporting was done per protocol in the vamorolone trials.
The current study is the first to evaluate the longer-term tolerability, efficacy, and safety of vamorolone in DMD. […] Given the variable timing of dose escalations, it was prespecified that initial analyses of drug-related efficacy and safety would be limited to those participants who had 18 months of treatment with 2.0 mg/kg/day vamorolone or more (dose group C+dose group D; n=23). Outcomes for these participants were compared to a group-matched cohort from the CINRG DNHS over 18 months (corticosteroid-naïve, n=19; corticosteroid-treated, n=68). Participants were matched for age and treatment period (±1 month), matching criteria were prespecified in the statistical analysis plan. Two independent statisticians carried out the matching.
Participants in the corticosteroid-treated CINRG DNHS group were treated for at least 18 months, but the total duration, dose, and regimens varied.

boys with DMD = assay: VBP15-LTE month 24 PODCI and wrist x-ray bone age
Description: In addition, 39/41 LTE participants had wrist x-ray at Month 24; the mean bone age to chronologic age difference was −1.1 (p<0.001, CI −1.5, −0.7), indicating possible skeletal maturation delay (Table 7).
PODCI is the Pediatrics Outcomes Data Collection Instrument (musculoskeletal disorders). The PODCI is a disease-specific questionnaire developed by the American Academy of Orthopedic Surgeons to measure general health and problems related to bone and muscle conditions in children. A significant increase in mean PODCI upper extremity and physical function standardized score was observed from LTE baseline to Month 24 (7.95±12.54, CI 1.003, 14.897, p=0.0278, n=15) for the combined 2.0 and 6.0 mg/kg/day initial dose group. At the same time, a non-significant decrease in mean PODCI transfer and basic mobility standardized score was observed (−4.38±22.68, CI −16.471, 7.703, p=0.451, n=16) (Table 7).

osteocalcin, P1NP, CTX = assay: VBP15-004 bone turnover biomarkers
[3] = VBP15-004 height and BMI z-scores, 24 to 48 weeks; conditions: for change in height Z scores: baseline to Week 24
Method: The second period of 24 weeks, where all participants receive vamorolone treatment on either of the two dose levels, will continue to capture additional longer-term safety and tolerability data.
Subjects already on vamorolone continued on the allocated dose level. Efficacy at Week 48 was assessed by Time to Stand (TTSTAND) velocity, 6-Minute Walk Test (6MWT), Time to Run/Walk 10 meters (TTRW) velocity, and North Star Ambulatory Assessment (NSAA). […] In contrast, the persistence of effects with vamorolone 2 mg/kg/day was less pronounced for some parameters. The safety profile was consistent for subjects who continued on the same dose of vamorolone throughout the study, with no increase in frequency or severity of adverse events being observed over time. […] In addition, vamorolone treatment at both doses reversed the growth impairment seen during prednisone treatment and was associated with fewer adverse events, including those associated with corticosteroid use.

[4] = vamorolone 18 months vs prednisone trial 12 months
[5] = vamorolone vs corticosteroid-naïve DNHS, 18 months
[6] = vamorolone vs corticosteroid-treated DNHS, 18 months

C[C@@H]1C[C@H]2[C@@H]3CCC4=CC(=O)C=C[C@]4(C)C3=CC[C@]2(C)[C@@]1(O)C(=O)CO [Vamorolone, 17α,21-dihydroxy-16α-methylpregna-1,4,9(11)-triene-3,20-dione]
dose-limiting toxicities ([1]; 2 weeks dosing, 0.25-6.0 mg/kg/day): no dose-limiting toxicities
drug accumulation ([1]; day 1 vs day 14): no drug accumulation
Mean BMI z-score, 18-month value (SD) ([2]; 18 months of treatment): 1.46 (0.62)
Mean BMI z-score, change from baseline (SD) ([2]; 18 months of treatment): 0.411 (0.615)
Mean height percentile for age, 18-month value (SD) ([2]; 18 months of treatment): 35.24 (29.82)
Mean BMI z-score, change from baseline (SD) ([2]; 18 months of treatment, listed as vamorolone): 0.41
LS Mean change in height percentiles for age ([2]; DMD children, 18 months treatment): +6.9
Mean BMI z-score, baseline value (SD) ([2]; baseline of 18-month period): 1.03 (0.56)
Mean height percentile for age, baseline value (SD) ([2]; baseline of 18-month period): 29.19 (24.66)
Mean BMI z-score, baseline value (SD) ([2]; baseline of 18-month period, listed as vamorolone): 1.03
BMI change from baseline to 18 months ([2]; original dose group B (0.75 mg/kg/day, escalated)): 0.5 kg/m^2
BMI change from baseline to 18 months ([2]; original dose group C (2.0 mg/kg/day)): 1.11 kg/m^2
BMI change from baseline to 18 months ([2]; original dose group D (6.0 mg/kg/day)): 2.55 kg/m^2
Mean BMI z-score, LS mean difference (SE) [2, 4]: 0.066 (0.193)
Mean height percentile for age, LS mean difference (SE) [2, 4]: 10.37 (3.86)
Mean height percentile for age, LS mean difference (SE) ([2]; vamorolone 18 months vs prednisone trial 12 months, listed as vamorolone): 10.37
Mean BMI z-score, LS mean difference (SE) [2, 5]: 0.899 (0.204)
Mean height percentile for age, LS mean difference (SE) [2, 5]: 6.72 (3.48)
Mean BMI z-score, LS mean difference (SE) [2, 6]: 0.282 (0.146)
Mean height percentile for age, LS mean difference (SE) [2, 6]: 15.86 (3.70)
Mean height percentile for age, LS mean difference (SE) ([2]; vamorolone vs corticosteroid-treated DNHS, 18 months, listed as vamorolone): 15.86
Bone Age by wrist x-ray, mean (SD) (boys with DMD): 6.8 (1.4), n = 39 yr
Bone Age difference to Chronologic Age, mean (SD) (boys with DMD): −1.1 (1.2), yr
Bone Age difference to Chronologic Age, mean (SD) (boys with DMD; listed as vamorolone): −1.1 yr
Osteocalcin, mean (SEM) change at Week 24 (osteocalcin, P1NP, CTX; Vamorolone 2.0 mg): 8.3 (3.1) ng/ml
Procollagen 1 N-Terminal Propeptide (P1NP), mean (SEM) change at Week 24 (osteocalcin, P1NP, CTX; Vamorolone 2.0 mg): 48 (27) ng/mL
Type I Collagen C-Telopeptides (CTX), mean (SEM) change at Week 24 (osteocalcin, P1NP, CTX; Vamorolone 2.0 mg): 177 (52) pg/mL
Osteocalcin, difference vs. prednisone (osteocalcin, P1NP, CTX; Vamorolone 2.0 mg, Week 24): 23.5 ng/mL
Procollagen 1 N-Terminal Propeptide (P1NP), difference vs. prednisone (osteocalcin, P1NP, CTX; Vamorolone 2.0 mg, Week 24): 182 ng/mL
Type I Collagen C-Telopeptides (CTX), difference vs. prednisone (osteocalcin, P1NP, CTX; Vamorolone 2.0 mg, Week 24): 477 pg/mL
Osteocalcin, mean (SEM) change at Week 24 (osteocalcin, P1NP, CTX; Vamorolone 6.0 mg): 1.7 (2.8) ng/ml
Procollagen 1 N-Terminal Propeptide (P1NP), mean (SEM) change at Week 24 (osteocalcin, P1NP, CTX; Vamorolone 6.0 mg): −11 (22) ng/mL
Type I Collagen C-Telopeptides (CTX), mean (SEM) change at Week 24 (osteocalcin, P1NP, CTX; Vamorolone 6.0 mg): 90 (44) pg/mL
Osteocalcin, difference vs. prednisone (osteocalcin, P1NP, CTX; Vamorolone 6.0 mg, Week 24): 16.9 ng/mL
Procollagen 1 N-Terminal Propeptide (P1NP), difference vs. prednisone (osteocalcin, P1NP, CTX; Vamorolone 6.0 mg, Week 24): 124 ng/mL
Type I Collagen C-Telopeptides (CTX), difference vs. prednisone (osteocalcin, P1NP, CTX; Vamorolone 6.0 mg, Week 24): 390 pg/mL
effect on bone biomarkers (osteocalcin, PINP, CTX) (osteocalcin, P1NP, CTX; Week 24, vamorolone 2.0 and 6.0 mg/kg): did not decrease bone biomarkers
height (z-score), absolute value, Mean ([3]; PDN/VAM 6 mg, Week 48): −0.12
BMI mean z-score ([3]; Treatment Period 2 after switch from prednisone to vamorolone 6 mg/kg/day): 1.32
growth velocity ([3]; both vamorolone doses, 48 weeks): preserved
BMI mean z-score ([3]; continuing on 2 mg/kg/day, Week 24): 1.10
BMI mean z-score ([3]; continuing on 2 mg/kg/day, Week 48): 0.91
BMI mean z-score ([3]; continuing on 6 mg/kg/day, Week 24): 1.40
BMI mean z-score ([3]; continuing on 6 mg/kg/day, Week 48): 1.32
change in height Z scores ([3]; vamorolone 2.0 mg/kg/day): overall stable height change Z scores
change in height Z scores ([3]; vamorolone 6.0 mg/kg/day): increased growth rate

From patent publication US20240299416A1, “TREATMENT OF NF-kB-MEDIATED DISEASE” (ReveraGen BioPharma, Inc., priority 2021, published 2024)
